{"source": "patent EP0108627A2", "about": "“Cephalosporin derivatives and process for producing the same” (SUMITOMO CHEMICAL COMPANY, LIMITED, priority 1982, dated 1984)", "data": [{"test": "Acute toxicity on mice", "settings": "mouse, in vivo, po; ICR-slc male mice, 4 weeks old", "experimental": "The compounds of Examples 4, 20 and 42 were tested for acute toxicity on mice^*.", "units": {"LD50": "mg/kg"}, "values": [{"smiles": "CON=C(C(=O)NC1C(=O)N2C(C(=O)OCC(C)=Cc3ccccc3)=CCS[C@H]12)c1csc(N)n1", "note": "(stereo partly drawn) [Example 4, 2-Methyl-3-phenyl-2-propenyl 7-[2-(2-amino-4-thiazolyl)-2-methoxyiminoacetamido]-3-cephem-4-carboxylate]", "LD50": "> 5000"}, {"smiles": "CON=C(C(=O)NC1C(=O)N2C(C(=O)OCC=C(C)C)=CCS[C@H]12)c1csc(N)n1", "note": "(stereo partly drawn) [Example 20, 3-Methyl-2-butenyl 7-[2-(2-amino-4-thiazolyl)-2-methoxyiminoacetamido]-3-cephem-4-carboxylate]", "LD50": "> 5000"}, {"smiles": "CC=C(C)COC(=O)C1=CCS[C@@H]2C(NC(=O)C(=NOC)c3csc(N)n3)C(=O)N12", "note": "(stereo partly drawn) [Example 42, 2-Methyl-2-butenyl 7-[2-(2-amino-4-thiazolyl)-2-methoxyiminoacetamido]-3-cephem-4-carboxylate]", "LD50": "> 5000"}]}]}
